Earlier results in patent US11116842B2, “Methylene blue complex for treating skin disease and its use thereof” (D. R. NANO Co., Ltd., priority 2017, dated 2021).

Tested on: skin disease such as acne
Conditions: for side effect in a long-term application: background art

## NCC(=O)CCC(=O)O [ALA, 5-aminolevulinic acid]
  side effect in a long-term application: xeroderma
prior-art photosensitizers
  Light protection time after operation: T > 30 hr
  Treatment effect: strong

## COC(=O)CCC(=O)CN [MAL, Methyl-aminolevulinate]
  side effect in a long-term application: xeroderma
